# Source: patent publication US7662997B2, “Synthesis and applications of 2-oxo-4-methylthiobutyric acid, its salts and its derivatives” (Adisseo Ireland Limited, priority 2004, dated 2010)
# Like-named read-outs stand apart in the source and are kept apart here.
# Settings: chicken; for Cl D7-D21 Delta (%) / Consumption D7-D21 Delta (%) / Weight gain D7-D21 Delta (%): relative to control R1
# Description: The starting product is a food base that is deficient in methionine, methionine being the nutritional element for which it is desired to observe a response, and the said nutritional element that is lacking is then introduced in the reference forms and in the test form, and then the performance levels obtained in each of the systems are compared, system R1 corresponding to no introduction of methionine.
# Two chickens per cage are tested, with controlled randomization by chance.
# Seven treatments were carried out:
# R1: without added methionine,
# R2 and R3: +Rhodimet™ NP99 (D,L-methionine powder sold by the applicant) at two different doses,
# R4 and R5: +Rhodimet™ AT88, at two different doses
# R6 and R7: +KMB, at two different doses.
# They were each repeated 14 times and are represented in Table 3 below.
# Zootechnical performance levels as a function of treatments (period 7-21 days)
# The smaller the number of grams required to obtain one gram of weight gain, the greater the efficiency of the product, as illustrated in the FIGURE.
# The ratio of KMB efficiency to DL-methionine efficiency is then calculated by calculating the ratio of the conversion efficiency values calculated at the two doses used.
# [1] = addition of 0.1% of methionine, 7-21 days, versus control
# [2] = higher dose (NP99 0.200%, AT88 0.225%, KMB 0.204%)
# [3] = higher dose (R3 NP99 0.200%, R5 AT88 0.225%, R7 KMB 0.204%)
# [4] = lower dose (NP99 0.100%, AT88 0.113%, KMB 0.102%)
# [5] = lower dose (R2 NP99 0.100%, R4 AT88 0.113%, R6 KMB 0.102%)
smiles,measurement,setting,value
"CSCCC(N)C(=O)O (racemic) [Rhodimet™ NP99, D,L-methionine]",decrease of the consumption index,[1],−11%
same,increase of the weight gain,[1],90 g
same,Cl D7-D21 Delta (%),[2],−9.2%
same,Consumption D7-D21 Delta (%),[2],5.5%
same,Weight gain D7-D21 Delta (%),[2],16.2%
same,Consumption D7-D21 (g) Means,[3],823 g
same,Mortality D7-D21,[3],0.0%
same,Weight gain D7-D21 (g) Means,[3],527 b g
same,Cl D7-D21 Delta (%),[4],−11.1%
same,Consumption D7-D21 Delta (%),[4],6.7%
same,Weight gain D7-D21 Delta (%),[4],19.8%
same,Consumption D7-D21 (g) Means,[5],832 g
same,Mortality D7-D21,[5],0.0%
same,Weight gain D7-D21 (g) Means,[5],544 b g
